# Assay results as given in patent publication US20160242416A1, “FUNGICIDAL ISOXAZOLINE CARBINOLS” (E I DU PONT DE NEMOURS AND COMPANY, priority 2015, published 2016).
# Legend:
# [1] = system: Erysiphe graminis f sp. tritici; experiment: Test G: wheat powdery mildew, preventive spray on wheat seedlings; conditions: 100 = 100% disease control; for Test G rating (% disease control): 10 ppm, wheat powdery mildew, 0 = no control
# Zymoseptoria tritici = experiment: Test E: wheat leaf blotch, preventive spray on wheat seedlings; conditions: 100 = 100% disease control; for Test E rating (% disease control): 10 ppm, wheat leaf blotch, 0 = no control
# Botrytis cinerea = experiment: Test B: gray mold, preventive spray on tomato seedlings; conditions: 100 = 100% disease control; for Test B rating (% disease control): 10 ppm, gray mold on tomato, 0 = no control
# Stagonospora nodorum = experiment: Test D: wheat glume blotch, preventive spray on wheat seedlings; conditions: 100 = 100% disease control; for Test D rating (% disease control): 10 ppm, wheat glume blotch, 0 = no control
# [2] = system: Puccinia recondita f sp. tritici; experiment: Test F: wheat leaf rust, preventive spray on wheat seedlings; conditions: 100 = 100% disease control; for Test F rating (% disease control): 10 ppm, wheat leaf rust, 0 = no control
# [3] = 10 ppm test solution, 0 = no control relative to controls
SMILES,Test G rating (% disease control) [1],Test E rating (% disease control) (Zymoseptoria tritici),Test B rating (% disease control) (Botrytis cinerea),Test D rating (% disease control) (Stagonospora nodorum),Test F rating (% disease control) [2],"Test G disease control rating [1, 3]",Test E disease control rating (Zymoseptoria tritici; [3]),Test B disease control rating (Botrytis cinerea; [3]),Test D disease control rating (Stagonospora nodorum; [3]),"Test F disease control rating [2, 3]"
"CC(C)(C)CC(O)(Cn1cncn1)C1=NOC(COc2ccc(Br)cc2)C1 (single isomer, unassigned) [Compound 171]",94%,0%,0%,63%,100%,–,–,–,–,–
"CC(C)(C)C(O)(Cn1cncn1)C1=NOC(COc2ccc(F)cc2)C1 (single isomer, unassigned) [Compound 80]",99%,1%,82%,100%,100%,–,–,–,–,–
"CC(C)(C)C(O)(Cn1cncn1)C1=NOC(COc2ccc(Cl)cn2)C1 (single isomer, unassigned) [Compound 95]",100%,0%,100%,100%,100%,–,–,–,–,–
"CCC(C)(C)C(O)(Cn1cncn1)C1=NOC(Cc2ccc(Cl)cc2)C1 (single isomer, unassigned) [Compound 18]",99%,6%,0%,87%,100%,–,–,–,–,–
"CC(C)(C)C(O)(Cn1cncn1)C1=NOC(c2ccc(-n3cc(Br)cn3)cc2)C1 (single isomer, unassigned) [Compound 8]",100%,0%,0%,0%,0%,–,–,–,–,–
"OC(Cn1cncn1)(C1=NOC(c2ccc(-n3cc(Br)cn3)cc2)C1)c1ccc(Cl)cc1 (single isomer, unassigned) [Compound 5]",100%,48%,0%,40%,100%,–,–,–,–,–
"CC(C)(C)CC1CC(C(O)(Cn2cncn2)c2ccc(Cl)cc2)=NO1 (single isomer, unassigned) [Compound 75]",97%,0%,0%,58%,90%,–,–,–,–,–
"CC(C)(C)CC1CC(C(O)(Cn2cncn2)C(C)(C)C)=NO1 (single isomer, unassigned) [Compound 78]",0%,0%,0%,0%,0%,–,–,–,–,–
"CC(C)(C)C(O)(Cn1cncn1)C1=NOC(COc2ccc(F)cc2)C1 (single isomer, unassigned) [Compound 79]",99%,21%,97%,100%,100%,–,–,–,–,–
"OC(Cn1cncn1)(C1=NOC(CSc2ccccc2)C1)c1ccc(Cl)cc1 (single isomer, unassigned) [Compound 51]",81%,1%,16%,89%,0%,–,–,–,–,–
"CC(C)(C)C(O)(Cn1cncn1)C1=NOC(COc2ccc(OCc3ccccc3)cc2)C1 (single isomer, unassigned) [Compound 71]",94%,1%,0%,0%,26%,–,–,–,–,–
OC(Cn1cncn1)(C1=NOC2c3ccccc3CCC12)c1ccc(Cl)cc1 (centres unmarked) [Compound 222],–,–,–,–,–,99%,23%,9%,50%,100%
"CC(C)(C)C(O)(Cn1cncn1)C1=NOC(COc2ccc(OC(F)(F)F)cc2)C1 (single isomer, unassigned) [Compound 24]",100%,0%,37%,99%,100%,–,–,–,–,–
"CC(C)(C)C(O)(Cn1cncn1)C1=NOC(COc2ccc(OCc3ccccc3)cc2)C1 (single isomer, unassigned) [Compound 72]",56%,0%,19%,0%,0%,–,–,–,–,–
"OC(Cn1cncn1)(C1=NOC(c2ccc(Cl)cc2)C1)c1ccccc1Cl (single isomer, unassigned) [Compound 150]",99%,42%,0%,100%,100%,–,–,–,–,–
"OC(Cn1cncn1)(C1=NOC(c2ccc(Cl)cc2)C1)C12CC3CC(CC(C3)C1)C2 (single isomer, unassigned) [Compound 39]",73%,18%,0%,87%,0%,–,–,–,–,–
"C[S+]([O-])c1ccc(C2CC(C(O)(Cn3cncn3)c3ccc(Cl)cc3)=NO2)cc1 (single isomer, unassigned) [Compound 111]",98%,9%,0%,0%,100%,–,–,–,–,–
"CC(C)(C)C(O)(Cn1cncn1)C1=NOC(CCc2ccc(C(F)(F)F)cc2)C1 (single isomer, unassigned) [Compound 13]",100%,98%,0%,100%,100%,–,–,–,–,–
"OC(Cn1cncn1)(C1=NOC(COc2ccc3c(c2)OCO3)C1)c1ccc(Cl)cc1 (single isomer, unassigned) [Compound 44]",64%,2%,0%,28%,0%,–,–,–,–,–
"OC(Cn1cncn1)(C1=NOC(c2ccc(Cl)cc2)C1)c1ccccc1Cl (single isomer, unassigned) [Compound 151]",90%,76%,0%,0%,84%,–,–,–,–,–
"OC(Cn1cncn1)(C1=NOC(Cc2ccc(Cl)cc2)C1)c1ccc(Cl)cc1 (single isomer, unassigned) [Compound 199]",100%,0%,0%,86%,100%,–,–,–,–,–
"CC(C)(C)C(O)(Cn1cncn1)C1=NOC(Cn2ccc(C(F)(F)F)n2)C1 (single isomer, unassigned) [Compound 48]",99%,0%,0%,94%,99%,–,–,–,–,–
